The values that follow come from patent publication US8933132B2, “Tricyclic substituted benzenesulfonamide piperazine derivatives as CAV2.2 calcium channel blockers” (Convergence Pharmaceuticals Limited, priority 2011, dated 2015).

For this assay, the target named is T1, hCav2.2 (Homo sapiens, UniProt Q00975).
T1 construct: expressed in transfected cells; plasmids pCIN5-hCav2.2, pCIH-hCav β3, pCIP-α2δ1
Briefly: hCav2.2 assay (IonWorks planar array electrophysiology, stable HEK293 cell line). The assay is classed as cell-based. The note with it: inhibition of current elicited by the 1st depolarising pulse by 50%; HEK293 cells expressing human Cav2.2 α1B/β3/α2δ1; read-out: tonic pIC50 (converted). The method, then: Compounds as defined in the first to third aspects may be tested for in vitro biological activity in the hCav2.2 assay in accordance with the following studies:
Stable cell lines expressing the human Cav2.2 α (α1B) subunit, along with the human β3 and α2δ1 auxiliary subunits were created following sequential transfection and selection of human embryonic kidney (HEK293) cells. HEK293 cells were cultured in Dulbecco's modified Eagles media/F12 media (Invitrogen, Cat #041-95750V) containing 10% fetal bovine serum, with added L-glutamine (2 mM; Invitrogen, Cat #25030-024) and non-essential amino acids (5%; Invitrogen, Cat #11140-035). Initially HEK293 cells were transfected with two plasmid vectors for expression of the hCav2.2 α subunit (pCIN5-hCav2.2 which carries a neomycin resistance marker) and the hCav β3 subunit (pCIH-hCav β3 which carries a hygromycin resistance marker). Clonal cell lines were isolated following selection in media supplemented with 0.4 mg ml^−1 Geneticin G418 (Invitrogen, Cat #10131-027) and 0.1 mg ml^−1 hygromycin (Invitrogen, Cat #10687-010). These clonal cell lines were assessed for Cav2.2 α/β3-mediated current expression using the IonWorks planar array electrophysiology technology (described below). A clonal line was identified that gave a reasonable level of functional Cav2.2 α/β3 current expression. This cell line was transfected with a plasmid vector for expression of the human α2δ1 subunit (pCIP-α2δ1 which carries a puromycin resistance marker) and clonal cell lines isolated following selection in media containing 0.62 μg ml^−1 puromycin (Sigma, Cat # P-7255), in addition to 0.4 mg ml^−1 Geneticin G418 and 0.1 mg ml^−1 hygromycin. […]
Currents were recorded at room temperature (21-23° C.) using the IonWorks planar array electrophysiology technology (Molecular Devices Corp.). […] In all experiments, the test pulse protocol was performed in the absence (pre-read) and presence (post-read) of a compound. Pre- and post-reads were separated by a compound addition followed by a 3-3.5 min incubation. […]
On the technique in general: Patch clamp records ionic current or voltage across a cell membrane.

Some results are limits rather than exact numbers.

T1 sequence (Q00975 whole entry): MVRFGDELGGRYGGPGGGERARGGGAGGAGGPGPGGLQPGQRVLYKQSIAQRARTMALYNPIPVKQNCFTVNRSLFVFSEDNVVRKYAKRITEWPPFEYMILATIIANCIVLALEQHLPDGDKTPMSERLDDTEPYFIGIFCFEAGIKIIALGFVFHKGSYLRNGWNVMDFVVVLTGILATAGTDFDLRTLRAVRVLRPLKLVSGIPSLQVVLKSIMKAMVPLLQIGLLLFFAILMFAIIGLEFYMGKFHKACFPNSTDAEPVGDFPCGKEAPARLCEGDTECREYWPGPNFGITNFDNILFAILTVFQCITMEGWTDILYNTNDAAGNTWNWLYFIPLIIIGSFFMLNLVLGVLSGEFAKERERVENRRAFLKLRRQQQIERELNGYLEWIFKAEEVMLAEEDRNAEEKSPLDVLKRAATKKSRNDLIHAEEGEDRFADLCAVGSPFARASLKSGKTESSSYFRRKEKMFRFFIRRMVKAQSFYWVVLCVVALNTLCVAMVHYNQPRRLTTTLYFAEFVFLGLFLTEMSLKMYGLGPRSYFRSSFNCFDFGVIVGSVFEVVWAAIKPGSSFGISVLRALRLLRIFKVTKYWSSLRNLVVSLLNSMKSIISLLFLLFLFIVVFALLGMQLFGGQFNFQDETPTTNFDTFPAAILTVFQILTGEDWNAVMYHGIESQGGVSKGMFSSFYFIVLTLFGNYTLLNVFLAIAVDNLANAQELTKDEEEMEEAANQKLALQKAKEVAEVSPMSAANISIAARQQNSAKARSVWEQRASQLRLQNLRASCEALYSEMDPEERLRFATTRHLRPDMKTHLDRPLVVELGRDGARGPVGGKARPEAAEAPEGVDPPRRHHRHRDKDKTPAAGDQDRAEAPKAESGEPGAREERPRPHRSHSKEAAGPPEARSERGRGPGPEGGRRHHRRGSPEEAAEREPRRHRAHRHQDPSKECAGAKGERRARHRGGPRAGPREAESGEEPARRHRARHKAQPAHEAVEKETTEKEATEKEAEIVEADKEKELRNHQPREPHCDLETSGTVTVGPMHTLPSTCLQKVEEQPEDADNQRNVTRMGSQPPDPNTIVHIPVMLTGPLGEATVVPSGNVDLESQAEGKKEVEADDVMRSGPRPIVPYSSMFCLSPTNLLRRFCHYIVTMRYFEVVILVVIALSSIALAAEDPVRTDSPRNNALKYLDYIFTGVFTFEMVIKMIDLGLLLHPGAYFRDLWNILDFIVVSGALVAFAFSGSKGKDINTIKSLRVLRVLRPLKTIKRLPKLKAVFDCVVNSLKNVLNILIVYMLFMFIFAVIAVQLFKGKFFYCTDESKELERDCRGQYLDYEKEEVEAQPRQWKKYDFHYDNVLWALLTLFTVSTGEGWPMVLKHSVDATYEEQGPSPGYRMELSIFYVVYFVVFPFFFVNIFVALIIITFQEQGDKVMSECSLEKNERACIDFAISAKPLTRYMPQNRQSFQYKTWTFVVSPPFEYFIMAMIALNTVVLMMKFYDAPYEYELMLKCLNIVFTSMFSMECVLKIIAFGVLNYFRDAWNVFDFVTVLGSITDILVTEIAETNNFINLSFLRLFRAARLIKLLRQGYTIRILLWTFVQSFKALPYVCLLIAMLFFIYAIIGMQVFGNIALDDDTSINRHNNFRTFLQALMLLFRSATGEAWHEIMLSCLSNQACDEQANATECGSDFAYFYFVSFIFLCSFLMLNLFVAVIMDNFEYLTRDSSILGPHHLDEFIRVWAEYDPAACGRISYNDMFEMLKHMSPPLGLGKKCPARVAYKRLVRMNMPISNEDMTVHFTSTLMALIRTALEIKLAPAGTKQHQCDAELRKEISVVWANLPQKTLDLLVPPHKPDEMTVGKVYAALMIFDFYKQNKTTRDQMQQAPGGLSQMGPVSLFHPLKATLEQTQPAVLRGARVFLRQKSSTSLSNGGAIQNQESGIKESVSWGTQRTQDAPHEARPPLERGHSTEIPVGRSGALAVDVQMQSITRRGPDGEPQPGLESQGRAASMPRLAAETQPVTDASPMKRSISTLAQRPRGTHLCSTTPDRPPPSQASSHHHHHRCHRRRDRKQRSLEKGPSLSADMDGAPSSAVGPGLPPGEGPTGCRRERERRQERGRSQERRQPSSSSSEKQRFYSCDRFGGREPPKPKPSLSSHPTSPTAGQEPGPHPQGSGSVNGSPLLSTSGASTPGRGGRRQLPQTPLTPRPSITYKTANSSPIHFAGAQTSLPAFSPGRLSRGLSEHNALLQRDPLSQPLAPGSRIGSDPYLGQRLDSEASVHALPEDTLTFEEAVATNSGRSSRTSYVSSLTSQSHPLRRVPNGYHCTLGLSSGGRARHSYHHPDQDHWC

As to `Cc1cc(C(F)(F)F)ccc1S(=O)(=O)N1CCN2C(=O)c3cccnc3C2C1` (single isomer, unassigned) [24/25 (slower running enantiomer)], the IC50 was not above 31.6 µM.

Take `Cc1ccc2c(n1)C1CN(S(=O)(=O)c3ccc(OC(C)C)cc3)CCN1C2=O` (stereo not drawn) [Compound 2, 2-Methyl-9-({4-[(1-methylethyl)oxy]phenyl}sulfonyl)-8,9,10,10a-tetrahydropyrido[2′,3′:3,4]pyrrolo-[1,2-a]pyrazin-5(7H)-one]: the IC50 is 100 µM.

Take `Cc1ccc2c(n1)C1CN(S(=O)(=O)c3ccc(C(F)(F)F)cc3C)CCN1C2=O` (stereo not drawn) [Compound 18, 2-Methyl-9-{[2-methyl-4-(trifluoromethyl)phenyl]sulfonyl}-8,9,10,10a-tetrahydropyrido[2′,3′:3,4]pyrrolo-[1,2-a]pyrazin-5(7H)-one]: the IC50 is not above 31.6 µM.
